The values that follow are results of earlier work, collected in article PMC4366844, “Biochemical and Pharmacological Characterizations of ESI-09 Based EPAC Inhibitors: Defining the ESI-09 “Therapeutic Window”” (Scientific Reports, 2015).

For the series, the system named is EPAC2. Particulars: cited from earlier work.

In the case of `Cc1ccc(S(=O)(=O)c2c(C)cc(C)cc2C)cc1` [ESI-05], the EPAC isoform selectivity result was “exclusively selective for EPAC2”.
